# Earlier results in patent US20030119753A1, “Novel ascorbic acid compounds, methods of synthesis and application use thereof” (priority 2001, published 2003).
# Settings: relative to ascorbic acid
compound,measurement,value
O=C1O[C@H]([C@@H](O)CO)C(O)=C1OS(=O)(=O)O [L-ascorbate 2-sulphate],more stable than ascorbic acid,20 times
